Data as given in US20120142771A1, “BIPHENYLACETAMIDE DERIVATIVE” (Dainippon Sumitomo Pharma Co., Ltd., priority 2008, published 2012).

Tests used:
Crl: CD (SD) male rats = assay: Evaluation of antidepressant effect (forced swimming, duration of immobility); format: in vivo
Description: (§1) Meanwhile, there are no reports about animal models which provide a good clinical prediction to evaluate the improving efficacy for bipolar disorder. However, bipolar disorder comprises “manic state” and “depressive state”, and some animals are reported to be useful as a model to evaluate the improvement of each pathological condition individually. In general, an index of manic state is excessive hyperactivity induced by administering methamphetamine and chlordiazepoxide in combination, and that of depressive state is immobility induced by forced swimming.
Test 6: Evaluation of Antidepressant Effect
Test 6 is a typical test to evaluate the antidepressant activity of medicaments (Porsolt et al., Nature, 266: 730-732, 1977, Porsolt et al., Eur. J. Pharmacol., 47: 379-391, 1978). Crl: CD (SD) male rats (12 rats in each group, body weight 200-250 g) were forced to swim for 15 minutes in a water pool with 200 mm diameter. In the pool, water was filled up to a depth of 205 mm from the bottom of the pool, and thus the rats could not touch the bottom of the pool with their hind limbs. Fifteen minutes after the completion of the forced swimming, test compounds were orally administered to the rats. On the next day, the test compounds were administered to the rats at the same dose as the previous day, and the rats were put in the pool for 5 minutes at the same clock time as the previous day. […] The antidepressant effect was evaluated by calculating how long the duration of immobility was shortened against the control. To the control, 0.5% methylcellulose solution was administered.

[1] = test system: 6 Hz psychomotor seizure model; assay: 6 Hz psychomotor seizure model; format: in vivo, mice; conditions: mice; for ED50: Mus musculus, 6 Hz psychomotor seizure model, read-out: ED50; for ED50 / 6 Hz (Positive number/tested number): oral; for 6 Hz (Positive number/tested number): 30 minutes or 1 hour after administration
Summary of the method: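 Anticonvulsant activity was tested in the 6 Hz psychomotor seizure model in mice, a model reflecting seizures resistant to current antiepileptic drugs. 30 minutes or an hour after dosing, corneal electrical stimulation (6 Hz, 32 mA, 3 seconds) was applied to provoke forelimb myoclonus, Straub tail and immobility. Control mice received 0.5% tragacanth solution, 0.5% methylcellulose solution or olive oil.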

[2] = test system: subcutaneously pentetrazol-injected model (scPTZ); assay: Subcutaneously pentetrazol-injected model (scPTZ) test; format: in vivo, mice; conditions: pentetrazol 85 mg/kg s.c. after 1 hour; for responders at 50 mg/kg / responders at 100 mg/kg: Mus musculus, po, 1 h, Slc: ddY male mice, 3 per group, observed 30 minutes for clonic convulsion, read-out: scPTZ (positive number/tested number) (converted); for responders at 50 mg/kg: 50 mg/kg oral; for responders at 100 mg/kg: 100 mg/kg oral; for anticonvulsant action in subcutaneously pentetrazol-injected model (scPTZ) test: mice, oral 50 or 100 mg/kg
Summary of the method: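 Male Slc:ddY mice (20-30 g, 3 per group) dosed orally at 50 or 100 mg/kg; pentetrazol 85 mg/kg given subcutaneously 1 h later. Controls received 0.5% tragacanth or 0.5% methylcellulose vehicle.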

[3] = test system: maximum electroshock seizure (MES) model; assay: Maximum electroshock seizure (MES) model test; format: in vivo, mice; conditions: for responders at 50 mg/kg / responders at 100 mg/kg: Mus musculus, po, 1 h, Slc: ddY male mice, 3 per group, electrical stimulation 1 hour after administration, inhibition of hind limb extension, read-out: MES (positive number/tested number) (converted); for responders at 50 mg/kg: 50 mg/kg oral; for responders at 100 mg/kg: 100 mg/kg oral; for anticonvulsant action in maximum electroshock seizure (MES) model test: mice, oral 50 or 100 mg/kg, 1 hour after administration
Summary of the method: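 Male Slc: ddY mice (3 per group, 20-30 g) received compound orally at 50 or 100 mg/kg; controls got 0.5% tragacanth or 0.5% methylcellulose. One hour post-dose, corneal stimulation (60 Hz, 25 mA, 0.2 s) induced tonic hind-limb extensor convulsion.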

Slc: C57BL/6J male mice = assay: Evaluation of antimanic effect (methamphetamine and chlordiazepoxide induced hyperactivity, locomotor distance); format: in vivo; conditions: for The rate of the shortened locomotor-distance (% control): methamphetamine 4 mg/kg and chlordiazepoxide 10 mg/kg i.p.
Description: as §1
Test 7: Evaluation of Antimanic Effect
Test 7 evaluates the antimanic effect of medicaments. The evaluation system is a test system whose utility has been already confirmed with a known antimanic agent which is clinically used as a mood-stabilizing drug, not as a drug for treating schizophrenia (Arban et al., Behay. Brain Res., 158:123-132, 2005, Foreman et al., Pharmacol. Biochem. Behay., 89: 523-534, 2008). Test compounds were orally administered to Slc: C57BL/6J male mice (8 mice in each group, body weight 20-26 g). After 30 minutes of administration, methamphetamine (4 mg/kg) and chlordiazepoxide (10 mg/kg) were administered intraperitoneally. Then, the mice were allowed to move freely in an acrylic cage (W 360 mm×D 230 mm×H 310 mm) for 90 minutes. The locomotor distances of the mice were measured with Ethovision software (Ver. 3.1). Among the 90 minutes, the result of the latter 60 minutes with the exception of the first 30 minute's result for adaptation to the new environment was used as data of the locomotor distance. The antimanic effect was evaluated by calculating how long locomotor distance was shortened against the control. To the control mice, 0.5% methylcellulose solution was administered.

amygdala-kindling model = assay: Amygdala-kindling model in rats; format: in vivo
Description: Test 3: Test with Amygdala-Kindling Model in Rats
Test 3 evaluates the anticonvulsant action of medicaments in rats, besides mice in Tests 1 and 2. Animal model (kindling model) used herein is a very similar model to clinical findings of focal onset seizures (i.e. simple partial seizure, complex partial seizure, and secondarily generalized tonic-clonic seizure), which is known to provide excellent clinical prediction. A chronic electrode was implanted in the cortex (frontal and posterior regions) and the amygdala of Slc: Wistar male rats (body weight 250-300 g). One week after the above operation, electrical stimulation (50 Hz, 400 μA, 1 second) into the amygdala was conducted once a day for about two weeks. The stimulation condition was determined according to the method of Loscher et al. [Epilepsy Res., 40: 63-77 (2000)]. The stimulation was continued until the seizure stage 5 in the seizure severity stages according to the method of Racine et al. [Motor seizure. Electroenceph. Clin. Neurophysiol., 32:281-294 (1972)] was observed 10 consecutive times. Kindling model was thus completed. Then, test compounds (100 mg/kg) were orally administered to this model. After an hour of administration, the rats were evaluated based on three parameters, i.e., a threshold stimulus current to induce seizure (i.e. seizure threshold), the duration of afterdischrage observed on an electroencephalogram, and seizure severity (stage scores 1-5). The results of the seizure threshold and the afterdischarge duration were shown as average percentage of change from the pretreatment value obtained before the administration of each test compound. To the control rats, 0.5% tragacanth solution was administered. Minus means decreased or shortened.

Slc: ddY male mice = assay: Rotarod performance test (motor disturbance); format: in vivo; conditions: 1 hour after administration, 10 mice
Protocol: Test 5: Rotarod Performance Test
Test 5 evaluates whether motor disturbance is caused by medicaments. On the day before the test, Slc: ddY male mice (body weight 20-30 g) were trained so that they could walk on a rotarod apparatus for 3 minutes without falling, wherein a cylinder of 4 cm diameter is rotated with a speed of 13 rotations per minute. Test compounds were orally administered to a group consisting of 10 mice. […] When the mice fell down within 100 seconds because of disturbed motor coordination, such mice were counted as positive. To the control mice, 0.5% methylcellulose solution was administered.

[4] = oral administration at a dose of 100 mg/kg

## NC(=O)Cc1ccccc1-c1ccccc1Cl [Example 16, 2-(2′-chlorobiphenyl-2-yl)acetamide]
Crl: CD (SD) male rats; 10 mg/kg oral
  The rate of the shortened duration of immobility (% control): 19.9 % control
Crl: CD (SD) male rats; 30 mg/kg oral
  The rate of the shortened duration of immobility (% control): 21.9 % control
[1]
  ED50: 38.1 mg/kg
[1]; dose 50 mg
  6 Hz (Positive number/tested number): 8/10/50
[2]
  responders at 50 mg/kg: 66.7%
  responders at 100 mg/kg: 100%
  anticonvulsant action in subcutaneously pentetrazol-injected model (scPTZ) test: anticonvulsant action was observed
[3]
  responders at 50 mg/kg: 100%
  responders at 100 mg/kg: 100%
  anticonvulsant action in maximum electroshock seizure (MES) model test: anticonvulsant action was observed
Slc: C57BL/6J male mice; 30 mg/kg oral
  The rate of the shortened locomotor-distance (% control): 45.7 % control
Slc: C57BL/6J male mice; 60 mg/kg oral
  The rate of the shortened locomotor-distance (% control): 69.1 % control
Slc: C57BL/6J male mice; 100 mg/kg oral
  The rate of the shortened locomotor-distance (% control): 84.9 % control

## NC(=O)Cc1ccccc1-c1cccc(F)c1 [Example 25, 2-(3′-fluorobiphenyl-2-yl)acetamide]
amygdala-kindling model; 100 mg/kg oral, 1 hour after administration, average percentage of change from pretreatment value
  Seizure threshold (uA) Δ % change: 69.4%
amygdala-kindling model; 100 mg/kg oral, 1 hour after administration, change from pretreatment value, minus means shortened
  Afterdischarge duration (sec) Δ % change: −100%
amygdala-kindling model; 100 mg/kg oral, 1 hour after administration, stage scores 1-5
  Seizure severity score: 0.0
amygdala-kindling model; [4]
  efficacy against the amygdala-kindling model: potent efficacy
[1]
  ED50: 61.9 mg/kg
[1]; [4]
  efficacy in 6 Hz psychomotor seizure model: potent efficacy
[1]; dose 100 mg/kg
  6 Hz (Positive number/tested number): 10/10/100
Slc: ddY male mice; 100 mg/kg oral
  The rate of mice which fell within 100 seconds (%): 0%
Slc: ddY male mice; 200 mg/kg oral
  The rate of mice which fell within 100 seconds (%): 10%
Slc: ddY male mice; 300 mg/kg oral
  The rate of mice which fell within 100 seconds (%): 60%
Slc: ddY male mice; 400 mg/kg oral
  The rate of mice which fell within 100 seconds (%): 90%
[2]
  responders at 50 mg/kg: 100%
  responders at 100 mg/kg: 100%
  anticonvulsant action in subcutaneously pentetrazol-injected model (scPTZ) test: anticonvulsant action was observed
[3]
  responders at 50 mg/kg: 100%
  responders at 100 mg/kg: 100%
  anticonvulsant action in maximum electroshock seizure (MES) model test: anticonvulsant action was observed

## Nc1nnc(-c2cccc(Cl)c2Cl)c(N)n1 [Lamotrigine, reference compound]
Crl: CD (SD) male rats; same conditions
  duration of immobility: dose-dependently shortened
Slc: C57BL/6J male mice; same conditions
  locomotor distance: dose-dependently shortened
